Measured values published in patent US11166924B2, “N-methyl-d-aspartate receptor allosteric modulators and methods for their use” (Qingdao Primedicine Pharmaceutical Company, Ltd., priority 2016, dated 2021).

Experiments:
[1] = biological target: T1, GluN2A NMDARs in GluN2B-lacking neurons (Mus musculus, UniProt P35436+P35438); assay: Whole-cell recordings in GluN2B-knockout cortical neurons; format: cell-based; settings: compared to NMDA control
T1 construct: endogenous in cells; host or cells: primary cortical neurons from GluN2B-knockout mouse embryos

GluN1/GluN2A^I176Y = biological target: T2, GluN1/GluN2A^I176Y (Rattus norvegicus, UniProt P35439+Q00959, I176Y); assay: Patch clamp in HEK293 cells expressing mutant GluN1/GluN2A I176Y; format: cell-based
T2 construct: expressed in transfected cells; host or cells: HEK293
Description: Whole cell patch-clamp recordings were performed under voltage-clamp mode using an Axopatch 200B or 1D patch-clamp amplifier (Molecular Devices). Whole-cell currents were recorded at a holding potential of −60 mV unless indicated elsewhere, and signals were filtered at 2 kHz, digitized at 10 kHz (Digidata 1322A). Recording pipettes (3-5 MΩ) were filled with intracellular solution containing (mM): CsCl 140, HEPES 10, Mg-ATP 4, QX-314 5, pH 7.20; osmolarity, 290-295 mOsm. BAPTA (10 mM) was added in the intracellular solution (unless otherwise specified). The coverslips were continuously superfused with extracellular solution containing (mM): NaCl 140, KCl 5.4, HEPES 10, CaCl2 1.3, glucose 20, pH 7.4; osmolarity, 305-315 mOsm. NMDA-induced currents were applied by NMDA through perfusion fast-step (Warner Instruments). With perfusion fast-step system, NMDA application was achieved by using a two-square barrel glass tubing and depending on the age of the cultured neurons, CNQX (10 μM), TTX (0.5 μM) or BIC (10 μM) were added in the extracellular solution to minimize the activation of ionotropic glutamate receptors and voltage-gated sodium channels, respectively. All experiments were performed at room temperature. Recordings from at least six HEK293 cells/neurons were performed for all active compounds. […]

[2] = system: CREB phosphorylation (pCREB) on Serine 133; assay: pCREB levels in hippocampal slices; design: species or system rat; settings: 10 μM; 30 min exposure; FIG. 21
Description: Male Sprague Dawley rats 4-8 weeks old (125-200 gm) were decapitated, and their brains were dissected rapidly and placed into ice-cold chopping saline [containing (in mM): 110 sucrose, 60 NaCl, 3 KCl, 1.25 NaH2PO4, 28 NaHCO3, 5 D-glucose, 0.5 CaCl2, 7 MgCl2, and 0.6 ascorbate, saturated with 95% O2/5% CO2]. Then 400 μm transverse slices were prepared with a Vibratome Series 1000 (Pelco, Ted Pella, Redding, Calif.). Slices were transferred immediately into a 1:1 mix of chopping saline and normal ACSF [containing (in mM): 125 NaCl, 2.5 KCl, 1.25 NaH2PO4, 25 NaHCO3, 10 D-glucose, 2 CaCl2, and 1 MgCl2, saturated with 95% O2/5% CO2] and maintained at room temperature for at least 90 min. Then the slices were transferred to ACSF at 32° C. in a submersion chamber for 45-60 min before pharmacological stimulation.
Brain tissues or cultured cells were lysed on ice in the lysis buffer and then the solution was centrifuged at 14,000 rpm for 10 min at 4° C. Next, the supernatant was collected and protein concentrations were determined using a BCA protein assay kit (Thermo Scientific, 23227). […] The band density of each protein was quantified by the Bio-Rad Quantity One software and the relative optical density was analyzed relative to loading total-CREB on the same membrane. […]

T1 sequence (P35436 23-1464, other chains not shown): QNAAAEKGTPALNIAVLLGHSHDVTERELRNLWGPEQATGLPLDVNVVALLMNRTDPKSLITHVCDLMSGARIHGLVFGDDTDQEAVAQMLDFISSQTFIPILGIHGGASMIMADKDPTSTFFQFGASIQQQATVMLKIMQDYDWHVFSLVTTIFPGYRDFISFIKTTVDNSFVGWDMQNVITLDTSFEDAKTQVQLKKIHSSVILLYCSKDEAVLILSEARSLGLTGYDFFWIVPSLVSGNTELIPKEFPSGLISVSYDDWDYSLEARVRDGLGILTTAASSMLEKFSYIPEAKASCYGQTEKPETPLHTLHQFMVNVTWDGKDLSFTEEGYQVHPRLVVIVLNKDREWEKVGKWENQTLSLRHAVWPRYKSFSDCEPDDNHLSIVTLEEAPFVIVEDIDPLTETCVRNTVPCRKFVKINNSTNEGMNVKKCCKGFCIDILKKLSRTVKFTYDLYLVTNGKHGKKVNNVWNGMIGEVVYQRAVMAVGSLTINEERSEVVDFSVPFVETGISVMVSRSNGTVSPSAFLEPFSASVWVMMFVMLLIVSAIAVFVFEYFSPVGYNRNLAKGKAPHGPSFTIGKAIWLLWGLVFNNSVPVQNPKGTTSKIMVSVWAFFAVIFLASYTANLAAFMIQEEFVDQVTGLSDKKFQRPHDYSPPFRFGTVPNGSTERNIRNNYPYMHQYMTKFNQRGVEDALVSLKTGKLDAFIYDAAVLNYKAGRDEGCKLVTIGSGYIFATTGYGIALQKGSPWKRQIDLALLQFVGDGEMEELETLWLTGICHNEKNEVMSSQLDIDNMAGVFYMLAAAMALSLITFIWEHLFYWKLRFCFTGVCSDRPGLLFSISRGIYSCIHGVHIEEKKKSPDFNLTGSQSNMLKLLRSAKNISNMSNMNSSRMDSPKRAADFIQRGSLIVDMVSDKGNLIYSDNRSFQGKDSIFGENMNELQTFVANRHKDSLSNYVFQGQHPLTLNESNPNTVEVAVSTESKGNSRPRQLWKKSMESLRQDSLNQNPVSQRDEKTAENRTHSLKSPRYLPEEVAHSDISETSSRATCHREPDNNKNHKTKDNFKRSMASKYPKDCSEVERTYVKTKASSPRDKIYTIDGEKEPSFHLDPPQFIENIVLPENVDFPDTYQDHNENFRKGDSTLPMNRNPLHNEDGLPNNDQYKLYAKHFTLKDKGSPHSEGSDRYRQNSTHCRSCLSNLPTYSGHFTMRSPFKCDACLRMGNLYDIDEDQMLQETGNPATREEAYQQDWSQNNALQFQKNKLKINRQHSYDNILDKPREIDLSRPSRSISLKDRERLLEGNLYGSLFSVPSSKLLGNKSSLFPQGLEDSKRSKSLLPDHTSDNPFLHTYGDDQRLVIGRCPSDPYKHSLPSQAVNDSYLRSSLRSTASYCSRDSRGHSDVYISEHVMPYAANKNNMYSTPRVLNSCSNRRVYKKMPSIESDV
T2 sequence (Q00959 23-1464 I176Y, other chains not shown): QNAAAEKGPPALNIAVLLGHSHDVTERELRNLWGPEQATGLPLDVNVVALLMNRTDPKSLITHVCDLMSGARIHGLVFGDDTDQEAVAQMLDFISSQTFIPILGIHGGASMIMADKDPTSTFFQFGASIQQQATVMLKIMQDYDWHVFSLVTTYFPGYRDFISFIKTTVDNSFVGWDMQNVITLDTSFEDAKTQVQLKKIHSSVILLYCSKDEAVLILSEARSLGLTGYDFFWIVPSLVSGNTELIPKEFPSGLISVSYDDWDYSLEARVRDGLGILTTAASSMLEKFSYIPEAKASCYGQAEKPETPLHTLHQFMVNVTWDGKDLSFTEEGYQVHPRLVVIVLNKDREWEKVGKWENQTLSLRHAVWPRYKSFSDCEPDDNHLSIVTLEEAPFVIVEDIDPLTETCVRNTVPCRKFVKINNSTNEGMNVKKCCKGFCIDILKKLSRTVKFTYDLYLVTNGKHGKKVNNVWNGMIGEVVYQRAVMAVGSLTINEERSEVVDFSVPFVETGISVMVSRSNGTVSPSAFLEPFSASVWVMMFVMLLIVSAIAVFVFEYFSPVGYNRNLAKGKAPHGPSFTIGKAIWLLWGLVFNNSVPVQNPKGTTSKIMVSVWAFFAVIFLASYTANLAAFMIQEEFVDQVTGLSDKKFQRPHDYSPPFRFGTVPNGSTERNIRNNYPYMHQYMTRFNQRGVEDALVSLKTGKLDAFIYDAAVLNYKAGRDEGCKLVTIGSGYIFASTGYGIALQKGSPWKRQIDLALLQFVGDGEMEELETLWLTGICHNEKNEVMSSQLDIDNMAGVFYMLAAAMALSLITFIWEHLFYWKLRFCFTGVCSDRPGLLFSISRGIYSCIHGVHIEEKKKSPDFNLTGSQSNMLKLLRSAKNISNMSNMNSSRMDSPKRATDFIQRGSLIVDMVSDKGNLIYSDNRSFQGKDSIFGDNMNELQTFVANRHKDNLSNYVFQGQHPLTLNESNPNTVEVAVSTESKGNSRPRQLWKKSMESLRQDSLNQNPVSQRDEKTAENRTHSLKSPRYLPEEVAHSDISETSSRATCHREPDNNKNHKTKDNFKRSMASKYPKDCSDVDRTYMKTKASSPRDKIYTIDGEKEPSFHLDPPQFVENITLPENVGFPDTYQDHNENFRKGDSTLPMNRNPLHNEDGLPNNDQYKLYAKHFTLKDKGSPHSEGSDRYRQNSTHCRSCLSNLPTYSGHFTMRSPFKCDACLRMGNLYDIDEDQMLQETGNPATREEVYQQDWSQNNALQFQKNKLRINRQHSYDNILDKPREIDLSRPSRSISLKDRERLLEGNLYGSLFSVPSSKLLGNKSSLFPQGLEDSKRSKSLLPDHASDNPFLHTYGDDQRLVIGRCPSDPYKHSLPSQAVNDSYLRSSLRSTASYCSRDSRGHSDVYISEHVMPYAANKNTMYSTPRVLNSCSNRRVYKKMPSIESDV

Row | Positive modulation of NMDAR currents ([1]; 100 μM bath, NMDA 20 μM, glycine 2 μM) [%] | Potentiation effect with co-applied ifenprodril (IF) ([1]; GluN2B-knockout neurons) [%] | NMDAR current change with NVP-AAM007 (0.2 μM) and Npam02 ([1]; Npam02 100 μM) [%] | SMILES | Relative potentiation (GluN1/GluN2A^I176Y; Table 3) [%] | Net Difference potentiation (GluN1/GluN2A^I176Y; normalized to wild-type) [%] | pCREB levels in hippocampal slices [2]
1 | 44.72±4.29 | 42.22±4.03 | 88.87±3.45 | COc1cccc(/C=N/NC(=O)c2ccccc2C)c1O [Npam02, (E)-N′-(2-hydroxy-3-methoxybenzylidene)-2-methylbenzohydrazide] | – | – | –
2 | – | – | – | CCOc1cc(Cl)c(Cl)c(/C=N/NC(=O)c2ccccc2Br)c1O [Npam43, (E)-2-bromo-N′-(2,3-dichloro-5-ethoxy-6-hydroxybenzylidene)benzohydrazide] | 189 ± 3.8 | −10.1 ± 0.12 | significantly enhanced pCREB levels
